Source: patent publication US20250019386A1, “PYRROLO[1,2-b]-2-PYRIDAZINONE COMPOUNDS AS 5-HT4 RECEPTOR AGONISTS” (SUVEN LIFE SCIENCES LIMITED, priority 2022, published 2025)

Experiments:
5-HT4 receptors [1] = target: T1, 5-HT4 receptors (Homo sapiens (Human), UniProt Q13639); test: Determination of EC50 values for 5-HT4 receptor (pCRE-Luc reporter assay); format: cell-based; settings: CHO cells expressing recombinant human 5-HT4 receptor and pCRE-Luc reporter; 4 h incubation; luciferase activity
Procedure: A stable CHO cell line expressing recombinant human 5-HT4 receptor and pCRE-Luc reporter system was used for cell-based assay. The assay offers a non-radioactive based approach to determine binding of a compound to GPCRs. In this specific assay, the level of intracellular cyclic AMP, which is modulated by activation, or inhibition of the receptor is measured. The recombinant cells harbor luciferase reporter gene under the control of cAMP response element.
The above cells were grown in 96 well clear bottom white plates in Ham's F12 medium containing 10% fetal bovine serum. Prior to the addition of compounds or standard agonist, cells were serum starved overnight. Increasing concentrations of test compounds were added to the cells in OptiMEM medium. The incubation was continued in CO2 incubator at 37° C. with 5% CO2 conditions for 4 h. Medium was removed and cells were washed with phosphate buffered saline. The cells were lysed and luciferase activity was measured in a Luminometer. Concentration-response data was generated using the luciferase assay, following incubation of cells with receptor ligands, were analyzed by subtracting basal levels (i.e. with medium alone), then normalizing values as a percentage of controls (endogenous agonist serotonin (10 μM)). […] EC50 values of the compounds were defined as the concentration required in stimulating the luciferase activity by 50%.

[2] = Rat pharmacokinetic study; format: in vivo; settings: male Wistar rats, plasma; for bioavailability: oral 3 mg/kg vs intravenous 1 mg/kg
Procedure: Male Wistar rats (250±50 g) were used as experimental animals. Animals were housed individually in polypropylene cages. Two days prior to study, rats were anesthetized with isoflurane for surgical placement of jugular vein catheter. Rats were randomly divided for oral (3 mg/kg and 10 mL/kg as dose volume) and intravenous (1 mg/kg and 2 mL/kg as dose volume) dosing (n=3/group) and fasted overnight before oral dosing (p.o.). However, rats allocated to intravenous dosing food and water was provided ad libitum.
Intravenous formulation was prepared by using water for injection as vehicle. For Oral, formulation was prepared by using reagent grade water as vehicle. The dose formulations were prepared freshly on the day of dosing.
After dosing of animal, each time point a 200 μL of blood sample was collected through jugular vein and replenished with an equivalent volume of normal saline. The collected blood sample was transferred into a labeled eppendorf tube containing 10 μL of sodium heparin (1000 IU/mL) as an anticoagulant. Typically blood samples were collected at following time points: 0.08, 0.25, 0.5, 1, 2, 4, 6, 8, and 24 h post dose. Blood was centrifuged at 4000 rpm for 10 min. Plasma was separated and stored frozen at −80° C. until analysis. The concentrations of the test compounds were quantified in plasma by qualified LC-MS/MS method using a suitable extraction technique. The test compounds were quantified in the calibration range around 1-2000 ng/mL in plasma. Study samples were analyzed using calibration samples in the batch and quality control samples spread across the batch.
Pharmacokinetic parameters Cmax, AUCt, t1/2 and bioavailability were calculated by non-compartmental model using standard non-compartmental model by using Phoenix WinNonlin 6.4 version Software.

[3] = Rat brain penetration study; format: in vivo; settings: brain/plasma, oral (gavage) 3 mg/kg, male Wistar rats, brain concentrations below LLOQ taken as zero, read-out: Single dose Brain Penetration (Cb/Cp)
Procedure: Male Wistar rats (225±25 g) were used as experimental animals. Three animals were housed in each cage. Animals were given water and food ad libitum throughout the experiment and maintained on a 12 h light/dark cycle.
Brain penetration was determined in discrete manner in rats. One day prior to dosing day, male Wistar rats were acclimatized. After acclimatization, the rats were grouped according to their weight. In each group, 3 animals were kept in individual cages and allowed free access to food and water. At each time point (0.5, 1, and 2 h) n=3 animals were used.
The compounds of formula (I) were suitably preformulated and administered orally at (free base equivalent) 3 mg/kg. Blood samples were collected via, cardiac puncture by using isoflurane anesthesia. The animals were sacrificed to collect brain tissue. Plasma was separated and brain samples were homogenized and stored frozen at −20° C. until analysis.
The concentrations of the compounds of formula (I) were quantified in plasma and brain homogenate by qualified LC-MS/MS method using a suitable extraction technique. The compounds of formula (I) were quantified in the calibration range of 1-2000 ng/mL in plasma and brain homogenate. Study samples were analyzed using calibration samples in the batch and quality control samples spread across the batch. Extent of brain-plasma ratio was calculated (Cb/Cp). Brain concentrations were found below LLOQ and a value of zero was considered for calculation purposes.

5-HT4 receptors [4] = target: T1, 5-HT4 receptors; settings: background statement; cited from earlier work
hERG potassium channels = hERG potassium channels (Homo sapiens (Human), UniProt Q12809); settings: background statement; cited from earlier work
gastric emptying = test: Effect on gastric emptying in Beagle dogs (clonidine model of gastroparesis); format: in vivo; settings: 10 mg/kg oral, clonidine-treated beagle dogs
Procedure: Six beagle dogs were used for the study in a crossover manner such that all 6 dogs received all the treatments. Each dog was placed in an individual cage after overnight fasting and water removed. To provide a model of gastroparesis, clonidine (α2 adrenergic agonist) at a dose of 10 μg/kg was injected subcutaneously 30 min before test meal administration.
Dogs were orally administered test compound of example 2 at 1, 3 and 10 mg/kg or vehicle or cisapride at 10 mg/kg immediately before the administration of clonidine. The test meal (10 mL/kg), made up of commercially available semi-solid food with 10 mg/kg of acetaminophen (APAP), was provided 30 min after clonidine injection. Blood samples were collected from cephalic vein at 0, 0.25, 0.5, 0.75, 1.0, 1.25, 1.5 & 2.0 h after test meal administration and then plasma was separated by centrifugation. Plasma concentrations of APAP were determined by in-house methods using LC-MS/MS.

T1 sequence (Q13639 whole entry): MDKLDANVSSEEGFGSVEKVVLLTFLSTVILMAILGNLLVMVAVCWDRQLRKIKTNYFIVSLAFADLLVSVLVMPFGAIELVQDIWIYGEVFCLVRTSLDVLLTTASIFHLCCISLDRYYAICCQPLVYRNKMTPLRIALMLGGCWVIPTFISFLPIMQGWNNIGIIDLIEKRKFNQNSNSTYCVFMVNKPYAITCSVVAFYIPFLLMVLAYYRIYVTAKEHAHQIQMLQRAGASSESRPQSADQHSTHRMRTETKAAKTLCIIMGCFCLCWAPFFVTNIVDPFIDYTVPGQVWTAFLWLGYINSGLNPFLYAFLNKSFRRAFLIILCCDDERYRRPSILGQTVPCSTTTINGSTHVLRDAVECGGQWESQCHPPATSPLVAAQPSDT
Sequence of hERG potassium channels (Q12809 whole entry): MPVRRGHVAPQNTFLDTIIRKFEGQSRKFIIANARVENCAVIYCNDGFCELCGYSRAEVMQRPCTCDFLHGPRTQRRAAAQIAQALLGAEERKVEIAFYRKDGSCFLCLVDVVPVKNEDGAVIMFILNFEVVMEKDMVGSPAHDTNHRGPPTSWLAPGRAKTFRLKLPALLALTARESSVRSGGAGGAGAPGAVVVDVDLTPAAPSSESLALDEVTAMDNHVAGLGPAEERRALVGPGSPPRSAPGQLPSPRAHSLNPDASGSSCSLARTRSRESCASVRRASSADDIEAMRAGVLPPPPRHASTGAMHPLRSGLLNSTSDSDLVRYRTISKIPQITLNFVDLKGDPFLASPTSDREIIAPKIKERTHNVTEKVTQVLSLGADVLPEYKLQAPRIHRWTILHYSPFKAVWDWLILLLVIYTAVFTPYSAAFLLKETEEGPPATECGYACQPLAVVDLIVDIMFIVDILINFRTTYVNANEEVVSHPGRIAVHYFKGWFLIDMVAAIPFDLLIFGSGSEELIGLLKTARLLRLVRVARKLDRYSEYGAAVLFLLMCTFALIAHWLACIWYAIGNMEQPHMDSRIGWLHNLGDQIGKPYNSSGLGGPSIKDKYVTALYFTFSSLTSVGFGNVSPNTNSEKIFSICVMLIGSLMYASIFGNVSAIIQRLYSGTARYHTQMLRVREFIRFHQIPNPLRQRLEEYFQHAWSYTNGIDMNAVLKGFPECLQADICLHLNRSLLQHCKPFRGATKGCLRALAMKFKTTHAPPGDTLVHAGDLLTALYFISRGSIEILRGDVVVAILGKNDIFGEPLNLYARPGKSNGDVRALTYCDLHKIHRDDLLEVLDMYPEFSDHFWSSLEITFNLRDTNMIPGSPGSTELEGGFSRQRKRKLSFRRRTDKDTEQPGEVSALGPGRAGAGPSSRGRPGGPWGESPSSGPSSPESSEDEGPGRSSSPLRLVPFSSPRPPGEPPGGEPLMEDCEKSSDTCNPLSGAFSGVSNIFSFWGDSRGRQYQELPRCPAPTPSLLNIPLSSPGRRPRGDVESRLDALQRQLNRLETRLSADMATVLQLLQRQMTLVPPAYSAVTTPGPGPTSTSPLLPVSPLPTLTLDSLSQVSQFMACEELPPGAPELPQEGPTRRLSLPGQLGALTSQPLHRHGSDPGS

Structure (SMILES) | EC50 (5-HT4 receptors [1]) [nM] | AUC(0-t) ([2]; intravenous (bolus), 1 mg/kg) [ng·h/mL] | half-life ([2]; intravenous (bolus), 1 mg/kg) [min] | AUC(0-t) ([2]; oral (gavage), 3 mg/kg) [ng·h/mL] | Cmax ([2]; oral (gavage), 3 mg/kg) [ng/mL] | bioavailability [2] [%] | Kp [3] | selectivity for 5-HT4 receptors (5-HT4 receptors [4]) | interaction with hERG potassium channels (hERG potassium channels) | speed of gastric emptying (gastric emptying)
CC(C)n1c(=O)c(C(=O)NC2CC3CCC(C2)N3C[C@H](O)CN(C)S(C)(=O)=O)cc2cccn21.O=C(O)C(O)C(O)C(=O)O (single isomer, unassigned) [Example 4] | 10 | 124 ± 7.9 | 102 ± 18 | 44 ± 22 | 11 ± 6.6 | 12 ± 5.9 | 0 |  |  | 
[H]/N=C(/NCCCCC)N/N=C/c1c[nH]c2ccc(OC)cc12 [tegaserod] |  |  |  |  |  |  |  | poor selectivity | potent interaction | 
CC(C)n1c(=O)c(C(=O)NC2CC3CCC(C2)N3CCNS(C)(=O)=O)cc2cccn21.O=C(O)C(O)C(O)C(=O)O [Example 28, N-{8-[2-Methanesulfonylaminoethyl]-8-azabicyclo[3.2.1]oct-3-yl} [1-isopropyl-2-oxo-1,2-dihydro pyrrolo[1,2-b]pyridazin]-3-carboxamide L-(+)-tartrate] | 12 | 146 ± 39 | 78 ± 12 | 189 ± 26 | 83 ± 51 | 43 ± 6 | 0 |  |  | 
COC(=O)NCCCN1C2CCC1CC(NC(=O)c1cc3cccn3n(C(C)C)c1=O)C2.O=C(O)C(O)C(O)C(=O)O [Example 34, N-{8-[3-Carbomethoxyaminopropyl]-8-azabicyclo[3.2.1]oct-3-yl} [1-isopropyl-2-oxo-1,2-dihydro pyrrolo[1,2-b]pyridazin]-3-carboxamide L-(+)-tartrate] | 18 | 119 ± 16 | 78 ± 18 | 274 ± 74 | 174 ± 49 | 77 ± 21 | 0 |  |  | 
COc1cc(N)c(Cl)cc1C(=O)NC1CCN(CCCOc2ccc(F)cc2)CC1OC (centres unmarked) [cisapride] |  |  |  |  |  |  |  | poor selectivity | potent interaction | restored speed of gastric emptying
